Measured values taken from patent US7820692B2, “Tetrahydro isoquinoline derivatives, preparation methods and medicinal uses thereof” (China Pharmaceutical University, priority 2006, dated 2010).

Columns and labels:
κ-opioid receptor = κ-opioid receptor (Homo sapiens, UniProt P41145); assay: Radioligand receptor binding assay, competition with [3H]diprenorphine, κ-receptor
Procedure: (§1) The experiment test tubes are divided into total binding tubes and non-specific binding tubes, and several groups of sample tubes added with competitive ligand in different concentrations are provided. The total binding tube is added with expressed membrane receptor protein equivalent to 20 μg and [^3H] diprenorphine (0.5 nM) (1.44 Pbq/mol broad spectrum opioid antagonist, Amersham), the corresponding non-specific binding tubes are further added with 1 μM Naloxone (broad spectrum opioid antagonist, Sigma), the sample tubes are added with different concentrations compounds which are to be screened, the final volume is regulated to 100 μl with 50 mM Tris(Amresco)-HCl (pH 7.4). Incubation is performed at 30° C. for 30 min, and the tubes are placed into ice water to stop reaction. Negative pressure filter is performed in Millipore sample collector via GF/(Whatman) glass fiber filter paper. Ice cold 50 mM Tris-HCl (pH 7.4) is used to wash the filter paper for three times, each for 4 ml; Dry the filter paper and place it in 0.5 ml Eppendorff tube, and add 0.5 ml of lipophilic scintillator liquid (Reagent No. 1 Factory Of Shanghai Chemical Reagent Co. Ltd). Beckman LS 6500 multifunctional liquid scintillation counter is adopted for measuring radiation intensity, calculating inhibition rate is calculated, each concentration has three duplicated tubes, and each tube is independently tested for 3-4 times.
(§2) IC50 value is calculated by software Prism 4.0.
(§3) Ki=IC50/(1+[L]/Kd), ([L] is the concentration of added marked ligand, and Kd is equilibrium dissociation constant of radioligand).

Kuming mice [1] = assay: Mice hot plate method analgesic test; format: in vivo
Procedure: (§4) Analgesic efficacy of the subject compound is determined by using model derived from mice hot plate method and mice writhing method (Methodology of Pharmacological Experiment, edition II, Xu Shuyun, People Medical Publishing Company, 1991).
Experiment Animal: Kuming Mice (Female, 18-22 g)
(§5) • (1) Selection of normal mice: the test room temperature is controlled at about 22° C., temperature of the hot plate of an pain threshold dector is regulated to 55° C., the duration from the moment the mice is put on the hot plate to the moment the mice start to lick the hind paw is recorded as pain threshold value, the test is repeated twice at interval of 20 min, and the mice with average pain threshold value no more than 30 sec is qualified mice. • (2) Experimental mice: the qualified mice are randomly divided into groups each having 10 mice, and subjected to subcutaneous injection. • Each group is tested for mice pain response time once every 5, 15, 30, 50, and 60 minute after administration, and the medicine is believed to be effective which response time beyond 1 min. • Mice Writhing Assay • I-6 is administered via subcutaneous injection, then 0.6% acetic acid solution (10 ml/kg) is administered after 30 min, and the number of the mice writhing within 15 min is recorded. 3.

μ-opioid receptor = μ-opioid receptor (Homo sapiens, UniProt P35372); assay: Radioligand receptor binding assay, competition with [3H]diprenorphine, μ-receptor
Procedure: as §1, §2, §3

[2] = Acute toxicity test of compound I-6; format: in vivo, mice; details: both sexes, Kunming, mouse, in vivo, intraperitoneal; peritoneal administration, mice, observation two weeks
Procedure: (§6) Acute toxicity of compound I-6 is determined according to Methodology of Pharmacological Experiment, edition II, Xu Shuyun (People's Medical Publishing House, 1991), and An Introduction of the Assessment for Novel Drugs, edition II, Qin Boyi (People's Medical Publishing House, 1999).
(§7) Kunming mice (body weight 18-22 g, female 6 weeks old, male 4-5 weeks) are provided, randomly divided into groups each having 20 mice (half female, half male). The mice are subjected to adaptive feeding for 1-2 days before administration. Compound I-6 is administered peritoneally for 4 dosage groups, 60 mg/kg, 50 mg/kg, 40 mg/kg, and 30 mg/kg. The mice are normally fed after administration, their conditions, such as drinking, feeding, excreting, activity, and hair color, are observed everyday, their body weights are weighed every other day, and the observation lasts for two weeks.

Kunming mice = assay: Acute toxicity test of compound I-6; format: in vivo; details: peritoneal administration at 30 mg/kg
Procedure: as §6, §7

Kuming mice [3] = assay: Analgesic tolerance test (hot plate, 9 days administration); format: in vivo; details: I-6 25 μg/kg subcutaneous injection Day 1-9, hot plate
Procedure: Kuming mice (18-20 g, male) are selected for test, and divided into physiological saline group, morphine group, and I-6 group.
physiological saline group: subcutaneous administration, 0.2 mL for each mice.
Morphine group: Day 1-3, subcutaneous injection, 7 mg/kg • Day 4-7, subcutaneous injection, 10 mg/kg • Day 8-9, subcutaneous injection, 15 mg/kg I-6 group: Day 1-9, subcutaneous injection, 25 μg/kg
Hot plate method in mice is adopted as model, administration lasts for 9 days, analgesic effects before and after administration are determined every day, and if analgesic effect is attenuated after continuous administration of 3 days, the drug concentration will be increased, and if analgesic effect don't change, the drug concentration will not be changed.

Kuming mice [4] = assay: Physical dependence test after chronic administration (Naloxone-induced jumping and weight reduction); format: in vivo; details: escalating 50-300 μg/kg s.c. twice daily for 10 days, then Naloxone 3 mg/kg peritoneally
Procedure: Kuming mice (18-20 g, male) are selected, and divided into physiological saline group, morphine group, and I-6 group.
physiological saline group: subcutaneous injection, 0.2 mL for each mice, continuous administration for 10 days.
(§8) morphine group: subcutaneous injection, administration according to an escalating dose schedule, 20, 40, 60, 80, 100 mg/kg, continuous administration for 10 days, two injections per day at 8 hours interval, administration with escalating concentration, and 100 mg/kg is maintained from the fifth injection until Day 10.
as §8, with “I-6” for “morphine”, “50, 100, 150, 200, 300 μg/kg,” for “20, 40, 60, 80, 100 mg/kg,”, “300 μg/kg” for “100 mg/kg”
2 hours after the end administration on the Day 10, each group is peritoneally administered with Naloxone 3 mg/kg, and jump times and weight reduction of mice within 20 min in each group are observed.

Kuming mice [5] = assay: Influence of compound I-6 on physical dependence caused by morphine; format: in vivo; details: I-6 300 μg/kg peritoneally 10 min before morphine every day
Procedure: Kuming mice (18-20 g, male) are selected and divided into physiological saline group, morphine group, and I-6+morphine group.
physiological saline group: subcutaneous injection, 0.2 mL for each mouse, continuous administration for 10 days.
as §8
I-6+morphine group: subcutaneous injection of morphine according to 20, 40, 60, 80, 100 mg/kg, continuous administration for 10 days, two injections per day at 8 hours interval, administration with escalating concentration, and 100 mg/kg is maintained from the fifth injection until Day 10; 300 μg/kg of compound I-6 is administered peritonally 10 min before administration of morphine every day.
2 hours after the end administration on Day 10, each group is peritoneally administered with Naloxone 3 mg/kg, and jump times and weight reduction of mice within 20 min in each group are observed.

Kuming mice [6] = assay: Mice writhing assay (acetic acid) analgesic test; format: in vivo; details: subcutaneous injection, 0.6% acetic acid after 30 min, writhing within 15 min
Procedure: as §4, §5

For O=C1CC(C(=O)N2CCc3ccccc3C2CN2CCCC2)c2cc(Cl)ccc21 (stereo not shown) [I-6, 1-(pyrrolidine-1-methyl)-2-(6-chloro-2,3-dihydro-inden-3-keto-1-carbonyl)-1,2,3,4-tetrahydroisoquinoline], the Ki (κ-opioid receptor; Ki=IC50/(1+[L]/Kd)) was 0.0299 nM, the dpm (κ-opioid receptor; competition binding with κ-receptor, compound at 1 × 10^−5 M, [3H]diprenorphine 0.5 nM) was 201.00 dpm and the IC50 (κ-opioid receptor; competition binding, κ-opioid receptor) was 0.105 nM. The inhibition at 10 µM (κ-opioid receptor; compound at 1 × 10^−5 M, read-out: inhibition rate %) was 100%, the “analgesic efficacy compared with morphine” value (Kuming mice [1]; mice hot plate method and mice writhing method) was “powerful analgesic efficacy” and the “Analgesic experiment result, Mice hot plate method” value (Kuming mice [1]; subcutaneous injection, hot plate 55° C., value with range in brackets) was 25.000(18.675-33.467) ug/kg. For the same compound, the Ki (μ-opioid receptor; Ki=IC50/(1+[L]/Kd)) was 668 nM, the IC50 (μ-opioid receptor; competition binding, μ-opioid receptor) was 2000 nM and the “receptor selectivity μKi/κKi” value (μ-opioid receptor; ratio of μ Ki to κ Ki) was 22341. The LD50 at 2 weeks [2] was 40.1 mg/kg, the “influence on drinking, feeding, excreting, activities and hair color” value (Kunming mice) was “no influence” and the analgesic tolerance (Kuming mice [3]) was “does not produce significant tolerance phenomena”. For the same compound, the “physical dependence after continuous administration” value (Kuming mice [4]) was “causes no physical dependence like morphine”, the “effect on physical dependence caused by morphine” value (Kuming mice [5]; 10 days) was “can resist physical dependence caused by morphine” and the “jump times of Naloxone-induced mice” value (Kuming mice [5]; Naloxone 3 mg/kg on Day 10) was “significantly reduce jump times”. For the same compound, the “Analgesic experiment result, Mice writhing assay” value (Kuming mice [6]) was 3.313(1.775-6.183) ug/kg.
